This note sets out measurements from ChEMBL document CHEMBL1152528, “Synthesis and kinase inhibitory activity of novel substituted indigoids” (Bioorg Med Chem, 2009).

The nature of experiment [1]: Inhibition of porcine brain CK1 assessed as [gamma-33P]ATP incorporation after 10 mins by scintillation counting. Also on record: species or system Sus scrofa.
Experiment [2] concerns the target Cyclin-dependent kinase 5/CDK5 activator 1 (Homo sapiens, UniProt Q00535). Put plainly: Inhibition of GST-fused CDK5/p25 expressed in Escherichia coli assessed as [gamma-33P]ATP incorporation after 10 mins by scintillation counting.
A short description of experiment [3]: Inhibition of Marthasterias glacialis CDK1/cyclin-B assessed as [gamma-33P]ATP incorporation after 10 mins by scintillation counting.
In experiment [4] the target is Glycogen synthase kinase-3 (Sus scrofa, UniProt B2LUN4+I6LNT8). Put plainly: Inhibition of porcine brain GSK3alpha/beta assessed as [gamma-33P]ATP incorporation after 30 mins by scintillation counting.
Experiment [5] concerns the target Dual specificity tyrosine-phosphorylation-regulated kinase 1A (Rattus norvegicus, UniProt Q63470). Description: Inhibition of GST-fused rat recombinant DYRK1A expressed in Escherichia coli assessed as [gamma-33P]ATP incorporation after 10 mins by scintillation counting.
For another experiment, the system named is Huh-7. Description: Antiproliferative activity against human HuH7 cells after 72 hrs by imaging analysis. The format is functional, cell-based. To be noted: Huh-7, 72 h.
Another experiment has as its system HCT-116. Description: Antiproliferative activity against human HCT116 cells after 72 hrs by imaging analysis. The format is functional, cell-based. Conditions: HCT-116, 72 h.
Another experiment deals with PC-3. Description: Antiproliferative activity against human PC3 cells after 72 hrs by imaging analysis. The format is functional, cell-based. Conditions: PC-3, 72 h.
Experiment [6] can be described thus: Antiproliferative activity against human fibroblast after 72 hrs by imaging analysis. The format is cell-based.
The subject of the next experiment is Caco-2. Description: Antiproliferative activity against human Caco-2 cells after 72 hrs by imaging analysis. The format is functional, cell-based. To be noted: Caco-2, 72 h.
The nature of experiment [7]: Antiproliferative activity against human NCI/ADR cells after 72 hrs by imaging analysis. It is filed as functional, cell-based. Conditions: NCI/ADR-RES.

The IC50 is the concentration that gives 50% inhibition.

Cyclin-dependent kinase 5/CDK5 activator 1, sequence (Q00535 whole entry, the tested form may be a part): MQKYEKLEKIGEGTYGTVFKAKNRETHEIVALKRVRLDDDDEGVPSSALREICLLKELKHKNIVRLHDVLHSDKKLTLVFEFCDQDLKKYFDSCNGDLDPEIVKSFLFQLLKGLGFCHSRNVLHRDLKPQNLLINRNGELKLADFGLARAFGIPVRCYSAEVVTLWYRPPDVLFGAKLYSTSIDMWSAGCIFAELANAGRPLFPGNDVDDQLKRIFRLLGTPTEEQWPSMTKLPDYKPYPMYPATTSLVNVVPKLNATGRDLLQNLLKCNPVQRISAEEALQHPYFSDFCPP
Cyclin-dependent kinase 5/CDK5 activator 1, sequence (Q15078 whole entry, further chain, the tested form may be a part): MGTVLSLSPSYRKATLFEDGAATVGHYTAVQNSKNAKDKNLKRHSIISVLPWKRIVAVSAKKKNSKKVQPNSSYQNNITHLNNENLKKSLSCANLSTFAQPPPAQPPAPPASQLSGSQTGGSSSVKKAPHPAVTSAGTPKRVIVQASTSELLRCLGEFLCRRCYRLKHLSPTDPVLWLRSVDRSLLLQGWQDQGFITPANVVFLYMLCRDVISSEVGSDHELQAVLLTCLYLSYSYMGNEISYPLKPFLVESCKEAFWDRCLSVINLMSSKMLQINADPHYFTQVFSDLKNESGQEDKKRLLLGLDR

Turning to `O=C1Nc2ccc([N+](=O)[O-])cc2/C1=C1/Nc2ccc(Br)cc2/C1=N/O`, the IC50 is greater than 10 µM in experiment [1]; 50 nM in experiment [2]; 160 nM in experiment [3]; 0.055 µM in experiment [4]; greater than 10 µM in experiment [5].

Consider `O=C1C(c2c(O)[nH]c3ccc([N+](=O)[O-])cc23)=Nc2ccccc21`, for which the IC50 was greater than 10 µM in [1]; 25000 nM in [2]; 40000 nM in [3]; 19 µM in experiment [4]; greater than 10 µM in experiment [5].

For the compound `O=Nc1c(-c2c(O)[nH]c3ccc([N+](=O)[O-])cc23)[nH]c2ccccc12`, the IC50 in [1] was greater than 10 µM; in experiment [2], 6 nM; in experiment [3] it was 19 nM; in experiment [4], 0.0021 µM; in [5], 1.3 µM.

For the compound `CC(=O)Nc1ccc2c(c1)/C(=C1/Nc3ccccc3/C1=N\O)C(=O)N2`, the IC50 in [1] was 0.4 µM; in experiment [2] it was 160 nM; in experiment [3], 88 nM; in experiment [4] it was 0.35 µM; in [5], 15 µM.

For the compound `CC(=O)Nc1ccc2c(c1)/C(=C1/Nc3ccccc3C1=O)C(=O)N2`, the IC50 with Huh-7 stood at 2 µM; in the experiment on HCT-116 it was 2 µM; in [1], 8 µM; in experiment [2], 18 nM; in [3], 50 nM; in the experiment with PC-3 it was 2 µM. Further, the IC50 in [6] was greater than 25 µM; in experiment [4] it was 0.0075 µM; in the experiment with Caco-2, 5 µM; in [5], 2.5 µM; in experiment [7] it was 10 µM.

Turning to `O=C1Nc2cc([N+](=O)[O-])ccc2/C1=C1/Nc2ccccc2C1=O`, the IC50 in the experiment on Huh-7 was greater than 25 µM; with HCT-116, 5 µM; in experiment [1], greater than 10 µM; in [2], greater than 10000 nM; in [3], greater than 10000 nM; in the experiment with PC-3 it was 15 µM. Also, the IC50 in experiment [6] was greater than 25 µM; in experiment [4], 60 µM; with Caco-2, 3 µM; in [7], 2 µM.

As for `Nc1ccc2c(c1)NC(=O)/C2=C1\Nc2ccccc2\C1=N/O`, the IC50 in [1] was determined as 0.5 µM; in experiment [2] it was 200 nM; in experiment [3], 1000 nM; in experiment [4], 0.18 µM.

Take `Nc1ccc2c(c1)/C(=C1/Nc3ccccc3C1=O)C(=O)N2`: the IC50 with Huh-7 was 6 µM; with HCT-116 it was 15 µM; in [1], 0.65 µM; in [2], 590 nM; in [3] it was 1500 nM; in the experiment with PC-3, 5 µM. Also, the IC50 is greater than 25 µM in [6]; 0.08 µM in [4]; 2 µM in the experiment on Caco-2; 2.5 µM in experiment [5]; 20 µM in experiment [7].

With `O=C1Nc2cc([N+](=O)[O-])ccc2/C1=C1/Nc2ccccc2/C1=N\O`, the IC50 was determined as 0.6 µM in experiment [1], 120 nM in experiment [2], 180 nM in experiment [3] and 0.04 µM in experiment [4].

Take `CC(=O)Nc1ccc2c(c1)/C(=C1/Nc3ccc(Br)cc3/C1=N\O)C(=O)N2`: the IC50 in experiment [1] is greater than 10 µM; in [2] it was 3300 nM; in experiment [3] it was 1400 nM; in experiment [4], 40 µM; in experiment [5] it was greater than 10 µM.

On to `O=C1Nc2c(Br)cc([N+](=O)[O-])cc2/C1=C1/Nc2ccccc2/C1=N\O`, for which the IC50 was greater than 10 µM in experiment [1]; greater than 10000 nM in [2]; greater than 10000 nM in experiment [3]; greater than 10 µM in experiment [4]; greater than 10 µM in experiment [5].

Turning to `O=C1Nc2ccccc2/C1=C1\C(=O)Nc2ccc([N+](=O)[O-])cc21`, the IC50 was greater than 25 µM in the experiment on Huh-7; greater than 25 µM in the experiment on HCT-116; greater than 25 µM in the experiment with PC-3; greater than 25 µM in experiment [6]; greater than 25 µM with Caco-2; 25 µM in experiment [7].

On to `O=C1Nc2ccc([N+](=O)[O-])cc2/C1=C1/Nc2ccc(Br)cc2C1=O`, for which the IC50 in experiment [1] is greater than 10 µM; in experiment [2] it was greater than 10000 nM; in experiment [3], greater than 10000 nM; in experiment [4], greater than 10 µM; in experiment [5], greater than 10 µM.

Take `Nc1ccc2c(c1)/C(=C1/Nc3ccccc3/C1=N\O)C(=O)N2`: the IC50 in [1] amounted to 0.13 µM; in [2] it was 150 nM; in experiment [3] it was 100 nM; in [4], 0.36 µM; in experiment [5] it was 4.2 µM.

In the case of `CC(=O)Nc1ccc2c(c1)/C(=C1/Nc3ccc(Br)cc3C1=O)C(=O)N2`, the 50% inhibitory concentration (IC50) in [1] is greater than 10 µM; in experiment [2], 110 nM; in experiment [3], 55 nM; in [4], 0.073 µM; in experiment [5], 7.3 µM.

As for `O=C1Nc2c(Br)cc([N+](=O)[O-])cc2/C1=C1/Nc2ccc(Br)cc2/C1=N\O`, the IC50 in [1] is greater than 10 µM; in [2], greater than 10000 nM; in experiment [3], greater than 10000 nM; in experiment [4], greater than 10 µM; in [5], greater than 10 µM.

In the case of `O=C1Nc2c(Br)cc([N+](=O)[O-])cc2/C1=C1/Nc2ccccc2C1=O`, the IC50 in experiment [1] is greater than 10 µM; in [2], greater than 10000 nM; in experiment [3] it was greater than 10000 nM; in [4] it was greater than 10 µM; in experiment [5], greater than 10 µM.

Turning to `O=C1Nc2c(Br)cc([N+](=O)[O-])cc2/C1=C1/Nc2ccc(Br)cc2C1=O`, the IC50 is greater than 10 µM in experiment [1]; greater than 10000 nM in [2]; greater than 10000 nM in experiment [3]; greater than 10 µM in [4]; greater than 10 µM in [5].

Turning to `O=C1Nc2cc([N+](=O)[O-])ccc2/C1=C1/Nc2ccc(Br)cc2C1=O`, the IC50 in experiment [1] was greater than 10 µM; in experiment [2], greater than 10000 nM; in experiment [3], greater than 10000 nM; in experiment [4], greater than 10 µM.

Turning to `Nc1ccc2c(c1)/C(=C1/Nc3ccc(Br)cc3/C1=N\O)C(=O)N2`, the IC50 in experiment [1] was greater than 10 µM; in [2], 1000 nM; in experiment [3], 410 nM; in [4], 6.6 µM; in [5] it was greater than 10 µM.

On to `O=C1Nc2cc([N+](=O)[O-])ccc2/C1=C1/Nc2ccc(Br)cc2/C1=N\O`, for which the IC50 in experiment [1] was found to be 18 µM; in [2], 300 nM; in [3] it was 7000 nM; in experiment [4], 0.7 µM.

Regarding `Nc1ccc2c(c1)NC(=O)/C2=C1\Nc2ccccc2C1=O`, the IC50 is greater than 25 µM in the experiment on Huh-7; greater than 25 µM in the experiment with HCT-116; 16 µM in experiment [1]; 4000 nM in experiment [2]; 30000 nM in experiment [3]; 25 µM in the experiment with PC-3. The IC50 in [6] was greater than 25 µM; in experiment [4], 0.36 µM; with Caco-2, 5 µM; in experiment [7], 25 µM.

For `Nc1ccc2c(c1)/C(=C1/Nc3ccc(Br)cc3C1=O)C(=O)N2`, the IC50 in experiment [1] was 2.7 µM; in experiment [2], 550 nM; in experiment [3] it was 600 nM; in [4] it was 0.44 µM; in experiment [5] it was greater than 10 µM.

As for `Nc1ccc2c(c1)/C(=C1\C(=O)Nc3ccccc31)C(=O)N2` [(3'Z)-5-AMINOISOINDIGO], the IC50 in the experiment on Huh-7 is greater than 25 µM; in the experiment with HCT-116, greater than 25 µM; in the experiment on PC-3, 25 µM; in [6] it was greater than 25 µM; in the experiment on Caco-2, greater than 25 µM; in [7] it was 25 µM.

Take `CC(=O)O[C@H]1C(=O)[C@@]2(C)[C@H]([C@H](OC(=O)c3ccccc3)[C@]3(O)C[C@H](OC(=O)[C@H](O)[C@@H](NC(=O)c4ccccc4)c4ccccc4)C(C)=C1C3(C)C)[C@]1(OC(C)=O)CO[C@@H]1C[C@@H]2O` [PACLITAXEL]: the IC50 with Huh-7 is 0.008 µM; with HCT-116, less than 0.0008 µM; in the experiment on PC-3, less than 0.0008 µM; in experiment [6], 0.03 µM; in the experiment on Caco-2 it was 0.02 µM; in [7] it was 0.004 µM.

Consider `CC[C@H](CO)Nc1nc(NCc2ccccc2)c2ncn(C(C)C)c2n1` [SELICICLIB], for which the IC50 is 5 µM in the experiment with Huh-7; 5 µM in the experiment on HCT-116; 8 µM in the experiment on PC-3; greater than 25 µM in experiment [6]; 6 µM in [7].
